Experimental data from ChEMBL document CHEMBL4020788, “Synthesis, SAR and molecular docking studies of benzo[d]thiazole-hydrazones as potential antibacterial and antifungal agents” (2017).
Calls of active or inactive are those of the source. No cut-off for these calls is given here.

Tests used:
Type in all cases: functional
Staphylococcus aureus [1] = assay: Antibacterial activity against Staphylococcus aureus at 25 ug/ml after 24 hrs by agar well diffusion method
Staphylococcus aureus [2] = assay: Antibacterial activity against Staphylococcus aureus at 50 ug/ml after 24 hrs by agar well diffusion method
Staphylococcus aureus [3] = assay: Antibacterial activity against Staphylococcus aureus at 75 ug/ml after 24 hrs by agar well diffusion method
Staphylococcus aureus [4] = assay: Antibacterial activity against Staphylococcus aureus at 100 ug/ml after 24 hrs by agar well diffusion method
Bacillus subtilis [5] = assay: Antibacterial activity against Bacillus subtilis at 25 ug/ml after 24 hrs by agar well diffusion method
Bacillus subtilis [6] = assay: Antibacterial activity against Bacillus subtilis at 50 ug/ml after 24 hrs by agar well diffusion method
Bacillus subtilis [7] = assay: Antibacterial activity against Bacillus subtilis at 75 ug/ml after 24 hrs by agar well diffusion method
Bacillus subtilis [8] = assay: Antibacterial activity against Bacillus subtilis at 100 ug/ml after 24 hrs by agar well diffusion method
Escherichia coli [9] = assay: Antibacterial activity against Escherichia coli at 25 ug/ml after 24 hrs by agar well diffusion method; conditions: for zone of inhibition at 25 µg/mL: read-out: DIZ
Escherichia coli [10] = assay: Antibacterial activity against Escherichia coli at 50 ug/ml after 24 hrs by agar well diffusion method; conditions: for zone of inhibition at 50 µg/mL: read-out: DIZ
Escherichia coli [11] = assay: Antibacterial activity against Escherichia coli at 75 ug/ml after 24 hrs by agar well diffusion method; conditions: for zone of inhibition at 75 µg/mL: read-out: DIZ
Escherichia coli [12] = assay: Antibacterial activity against Escherichia coli at 100 ug/ml after 24 hrs by agar well diffusion method; conditions: for zone of inhibition at 100 µg/mL: read-out: DIZ
Klebsiella pneumoniae [13] = assay: Antibacterial activity against Klebsiella pneumoniae at 25 ug/ml after 24 hrs by agar well diffusion method; conditions: for zone of inhibition at 25 µg/mL: read-out: DIZ
Klebsiella pneumoniae [14] = assay: Antibacterial activity against Klebsiella pneumoniae at 50 ug/ml after 24 hrs by agar well diffusion method; conditions: for zone of inhibition at 50 µg/mL: read-out: DIZ
Klebsiella pneumoniae [15] = assay: Antibacterial activity against Klebsiella pneumoniae at 75 ug/ml after 24 hrs by agar well diffusion method; conditions: for zone of inhibition at 75 µg/mL: read-out: DIZ
Klebsiella pneumoniae [16] = assay: Antibacterial activity against Klebsiella pneumoniae at 100 ug/ml after 24 hrs by agar well diffusion method; conditions: for zone of inhibition at 100 µg/mL: read-out: DIZ
Staphylococcus aureus [17] = assay: Antibacterial activity against methicillin resistant Staphylococcus aureus MRSA090 at 25 ug/ml after 24 hrs by agar well diffusion method; conditions: for zone of inhibition at 25 µg/mL: MRSA090, 24 h, read-out: DIZ
Staphylococcus aureus [18] = assay: Antibacterial activity against methicillin resistant Staphylococcus aureus MRSA090 at 50 ug/ml after 24 hrs by agar well diffusion method; conditions: for zone of inhibition at 50 µg/mL: MRSA090, 24 h, read-out: DIZ
Staphylococcus aureus [19] = assay: Antibacterial activity against methicillin resistant Staphylococcus aureus MRSA090 at 75 ug/ml after 24 hrs by agar well diffusion method; conditions: for zone of inhibition at 75 µg/mL: MRSA090, 24 h, read-out: DIZ
Staphylococcus aureus [20] = assay: Antibacterial activity against methicillin resistant Staphylococcus aureus MRSA090 at 100 ug/ml after 24 hrs by agar well diffusion method; conditions: for zone of inhibition at 100 µg/mL: MRSA090, 24 h, read-out: DIZ
Aspergillus niger [21] = assay: Antifungal activity against Aspergillus niger at 25 ug/ml after 48 hrs by agar well diffusion method
Aspergillus niger [22] = assay: Antifungal activity against Aspergillus niger at 50 ug/ml after 48 hrs by agar well diffusion method
Aspergillus niger [23] = assay: Antifungal activity against Aspergillus niger at 75 ug/ml after 48 hrs by agar well diffusion method
Aspergillus niger [24] = assay: Antifungal activity against Aspergillus niger at 100 ug/ml after 48 hrs by agar well diffusion method
Fusarium verticillioides [25] = assay: Antifungal activity against Fusarium moniliforme at 25 ug/ml after 48 hrs by agar well diffusion method
Fusarium verticillioides [26] = assay: Antifungal activity against Fusarium moniliforme at 50 ug/ml after 48 hrs by agar well diffusion method
Fusarium verticillioides [27] = assay: Antifungal activity against Fusarium moniliforme at 75 ug/ml after 48 hrs by agar well diffusion method; conditions: for zone of inhibition at 75 µg/mL: read-out: DIZ
Fusarium verticillioides [28] = assay: Antifungal activity against Fusarium moniliforme at 100 ug/ml after 48 hrs by agar well diffusion method; conditions: for zone of inhibition at 100 µg/mL: read-out: DIZ
Fusarium oxysporum [29] = assay: Antifungal activity against Fusarium oxysporum at 25 ug/ml after 48 hrs by agar well diffusion method
Fusarium oxysporum [30] = assay: Antifungal activity against Fusarium oxysporum at 50 ug/ml after 48 hrs by agar well diffusion method
Fusarium oxysporum [31] = assay: Antifungal activity against Fusarium oxysporum at 75 ug/ml after 48 hrs by agar well diffusion method; conditions: for zone of inhibition at 75 µg/mL: read-out: DIZ
Fusarium oxysporum [32] = assay: Antifungal activity against Fusarium oxysporum at 100 ug/ml after 48 hrs by agar well diffusion method; conditions: for zone of inhibition at 100 µg/mL: read-out: DIZ

## CC/C=N/Nc1nc2cccc(C)c2s1
Staphylococcus aureus [1]
  diameter of the inhibition zone (DIZ): inactive
Staphylococcus aureus [2]
  diameter of the inhibition zone (DIZ): inactive
Staphylococcus aureus [3]
  diameter of the inhibition zone (DIZ): inactive
Staphylococcus aureus [4]
  diameter of the inhibition zone (DIZ): inactive
Bacillus subtilis [5]
  diameter of the inhibition zone (DIZ): inactive
Bacillus subtilis [6]
  diameter of the inhibition zone (DIZ): inactive
Bacillus subtilis [7]
  diameter of the inhibition zone (DIZ): inactive
Bacillus subtilis [8]
  diameter of the inhibition zone (DIZ): inactive
Escherichia coli [9]
  diameter of the inhibition zone (DIZ): inactive
Escherichia coli [10]
  diameter of the inhibition zone (DIZ): inactive
Escherichia coli [11]
  diameter of the inhibition zone (DIZ): inactive
Escherichia coli [12]
  diameter of the inhibition zone (DIZ): inactive
Klebsiella pneumoniae [13]
  diameter of the inhibition zone (DIZ): inactive
Klebsiella pneumoniae [14]
  diameter of the inhibition zone (DIZ): inactive
Klebsiella pneumoniae [15]
  diameter of the inhibition zone (DIZ): inactive
Klebsiella pneumoniae [16]
  diameter of the inhibition zone (DIZ): inactive
Staphylococcus aureus [17]
  diameter of the inhibition zone (DIZ): inactive
Staphylococcus aureus [18]
  diameter of the inhibition zone (DIZ): inactive
Staphylococcus aureus [19]
  diameter of the inhibition zone (DIZ): inactive
Staphylococcus aureus [20]
  diameter of the inhibition zone (DIZ): inactive
Aspergillus niger [21]
  diameter of the inhibition zone (DIZ): inactive
Aspergillus niger [22]
  diameter of the inhibition zone (DIZ): inactive
Aspergillus niger [23]
  diameter of the inhibition zone (DIZ): inactive
Aspergillus niger [24]
  diameter of the inhibition zone (DIZ): inactive
Fusarium verticillioides [25]
  diameter of the inhibition zone (DIZ): inactive
Fusarium verticillioides [26]
  diameter of the inhibition zone (DIZ): inactive
Fusarium verticillioides [27]
  diameter of the inhibition zone (DIZ): inactive
Fusarium verticillioides [28]
  diameter of the inhibition zone (DIZ): inactive
Fusarium oxysporum [29]
  diameter of the inhibition zone (DIZ): inactive
Fusarium oxysporum [30]
  diameter of the inhibition zone (DIZ): inactive
Fusarium oxysporum [31]
  diameter of the inhibition zone (DIZ): inactive
Fusarium oxysporum [32]
  diameter of the inhibition zone (DIZ): inactive

## Cc1cccc2nc(N/N=C/c3ccc([N+](=O)[O-])cc3)sc12
Staphylococcus aureus [1]; read-out: DIZ
  zone of inhibition at 25 µg/mL: 7 mm
Staphylococcus aureus [2]; read-out: DIZ
  zone of inhibition at 50 µg/mL: 9 mm
Staphylococcus aureus [3]; read-out: DIZ
  zone of inhibition at 75 µg/mL: 12 mm
Staphylococcus aureus [4]; read-out: DIZ
  zone of inhibition at 100 µg/mL: 14 mm
Bacillus subtilis [5]
  diameter of the inhibition zone (DIZ): inactive
Bacillus subtilis [6]; read-out: DIZ
  zone of inhibition at 50 µg/mL: 4 mm
Bacillus subtilis [7]; read-out: DIZ
  zone of inhibition at 75 µg/mL: 8 mm
Bacillus subtilis [8]; read-out: DIZ
  zone of inhibition at 100 µg/mL: 11 mm
Escherichia coli [9]
  zone of inhibition at 25 µg/mL: 4 mm
Escherichia coli [10]
  zone of inhibition at 50 µg/mL: 18 mm
Escherichia coli [11]
  zone of inhibition at 75 µg/mL: 11 mm
Escherichia coli [12]
  zone of inhibition at 100 µg/mL: 14 mm
Klebsiella pneumoniae [13]
  zone of inhibition at 25 µg/mL: 7 mm
Klebsiella pneumoniae [14]
  zone of inhibition at 50 µg/mL: 11 mm
Klebsiella pneumoniae [15]
  zone of inhibition at 75 µg/mL: 14 mm
Klebsiella pneumoniae [16]
  zone of inhibition at 100 µg/mL: 16 mm
Staphylococcus aureus [17]
  zone of inhibition at 25 µg/mL: 3 mm
Staphylococcus aureus [18]
  zone of inhibition at 50 µg/mL: 7 mm
Staphylococcus aureus [19]
  zone of inhibition at 75 µg/mL: 10 mm
Staphylococcus aureus [20]
  zone of inhibition at 100 µg/mL: 16 mm
Aspergillus niger [21]; read-out: DIZ
  zone of inhibition at 25 µg/mL: 6 mm
Aspergillus niger [22]; read-out: DIZ
  zone of inhibition at 50 µg/mL: 13 mm
Aspergillus niger [23]; read-out: DIZ
  zone of inhibition at 75 µg/mL: 17 mm
Aspergillus niger [24]; read-out: DIZ
  zone of inhibition at 100 µg/mL: 21 mm
Fusarium verticillioides [25]
  diameter of the inhibition zone (DIZ): inactive
Fusarium verticillioides [26]
  diameter of the inhibition zone (DIZ): inactive
Fusarium verticillioides [27]
  zone of inhibition at 75 µg/mL: 4 mm
Fusarium verticillioides [28]
  zone of inhibition at 100 µg/mL: 8 mm
Fusarium oxysporum [29]; read-out: DIZ
  zone of inhibition at 25 µg/mL: 6 mm
Fusarium oxysporum [30]; read-out: DIZ
  zone of inhibition at 50 µg/mL: 10 mm
Fusarium oxysporum [31]
  zone of inhibition at 75 µg/mL: 14 mm
Fusarium oxysporum [32]
  zone of inhibition at 100 µg/mL: 21 mm

## Cc1cccc2nc(N/N=C/c3ccc[nH]3)sc12
Staphylococcus aureus [1]
  diameter of the inhibition zone (DIZ): inactive
Staphylococcus aureus [2]
  diameter of the inhibition zone (DIZ): inactive
Staphylococcus aureus [3]
  diameter of the inhibition zone (DIZ): inactive
Staphylococcus aureus [4]
  diameter of the inhibition zone (DIZ): inactive
Bacillus subtilis [5]
  diameter of the inhibition zone (DIZ): inactive
Bacillus subtilis [6]
  diameter of the inhibition zone (DIZ): inactive
Bacillus subtilis [7]
  diameter of the inhibition zone (DIZ): inactive
Bacillus subtilis [8]
  diameter of the inhibition zone (DIZ): inactive
Escherichia coli [9]
  zone of inhibition at 25 µg/mL: 12 mm
Escherichia coli [10]
  zone of inhibition at 50 µg/mL: 17 mm
Escherichia coli [11]
  zone of inhibition at 75 µg/mL: 22 mm
Escherichia coli [12]
  zone of inhibition at 100 µg/mL: 24 mm
Klebsiella pneumoniae [13]
  zone of inhibition at 25 µg/mL: 10 mm
Klebsiella pneumoniae [14]
  zone of inhibition at 50 µg/mL: 14 mm
Klebsiella pneumoniae [15]
  zone of inhibition at 75 µg/mL: 19 mm
Klebsiella pneumoniae [16]
  zone of inhibition at 100 µg/mL: 23 mm
Staphylococcus aureus [17]
  zone of inhibition at 25 µg/mL: 4 mm
Staphylococcus aureus [18]
  zone of inhibition at 50 µg/mL: 8 mm
Staphylococcus aureus [19]
  zone of inhibition at 75 µg/mL: 11 mm
Staphylococcus aureus [20]
  zone of inhibition at 100 µg/mL: 17 mm
Aspergillus niger [21]
  diameter of the inhibition zone (DIZ): inactive
Aspergillus niger [22]
  diameter of the inhibition zone (DIZ): inactive
Aspergillus niger [23]
  diameter of the inhibition zone (DIZ): inactive
Aspergillus niger [24]
  diameter of the inhibition zone (DIZ): inactive
Fusarium verticillioides [25]; read-out: DIZ
  zone of inhibition at 25 µg/mL: 4 mm
Fusarium verticillioides [26]; read-out: DIZ
  zone of inhibition at 50 µg/mL: 9 mm
Fusarium verticillioides [27]
  zone of inhibition at 75 µg/mL: 14 mm
Fusarium verticillioides [28]
  zone of inhibition at 100 µg/mL: 18 mm
Fusarium oxysporum [29]
  diameter of the inhibition zone (DIZ): inactive
Fusarium oxysporum [30]
  diameter of the inhibition zone (DIZ): inactive
Fusarium oxysporum [31]
  zone of inhibition at 75 µg/mL: 10 mm
Fusarium oxysporum [32]
  zone of inhibition at 100 µg/mL: 15 mm
